# Measured values reported in paper PMC9179154, “Identification of acetylated diether lipids in halophilic Archaea” (MicrobiologyOpen, 2022).
# Target: T1, hvYvoF (YvoF from Haloferax volcanii) (Haloferax volcanii, UniProt D4GZM3)
# T1 construct: full length, C-terminal His6 tag, pTA1228 vector, NdeI/XhoI; homologous expression in H. volcanii H1424, IMAC; printed cloning primers encode N-terminus MTDDDAAP and C-terminus DETDGA before LE of the XhoI site
# Experiment: […]-GGG acetylation, TLC and autoradiography
# Assay type: biochemical
# Settings: acetyl-CoA 0.25 mM, MgCl2 10 mM, 1300 mM NaCl, 0.2% Tween80, pH 8.0, 40 °C; labelled compound
# T1 sequence (D4GZM3 entry or part of it): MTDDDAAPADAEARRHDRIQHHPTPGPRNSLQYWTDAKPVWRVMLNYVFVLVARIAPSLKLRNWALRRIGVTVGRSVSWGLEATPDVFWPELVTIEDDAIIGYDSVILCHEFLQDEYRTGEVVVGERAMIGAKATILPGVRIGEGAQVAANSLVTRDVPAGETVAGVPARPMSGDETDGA
structure (smiles),measurement,value
"CC(C)=CCC/C(C)=C/CC/C(C)=C/CC/C(C)=C/COC[C@H](O)CO [GGG, geranylgeranylglycerol]","14C-GGG acetylation, TLC and autoradiography",GGG was gradually diacetylated (to Ac2‐GGG) by hvYvoF with increasing incubation time
